{
  "source": "paper doi:10.64898/2025.12.17.694979",
  "about": "“Tunable multivalent Fe(II)-based glycoassemblies as mimetics for native high-mannose glycans” (bioRxiv, 2025)",
  "key": {"[1]": {"target": "monomeric Griffithsin (mGRFT) (Griffithsia sp., UniProt P84801, INS16GS)", "sequence (P84801 whole entry, stated change not applied)": "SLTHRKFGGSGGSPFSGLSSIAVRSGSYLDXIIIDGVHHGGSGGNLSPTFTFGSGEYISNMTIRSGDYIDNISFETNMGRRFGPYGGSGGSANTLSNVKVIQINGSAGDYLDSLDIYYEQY", "assay": "Biolayer interferometry (BLI) binding to mGRFT", "settings": "for Kd: mGRFT as the analyte, 25 °C", "experimental": "(§1) All BLI experiments were performed at 25 °C on an Octet R2 instrument using SA or NiNTA biosensors. Ligand was loaded onto the biosensors followed by a baseline then association and dissociation phase. Biosensors were regenerated and this process was repeated for varying concentrations of analyte. Data was processed in Octet analysis studio 13.0. The samples were double referenced, first to a reference sensor then to a well containing no analyte. The trace responses were aligned to the average of the final 5s of the baseline and inter-step corrected to the dissociation step. A Savitzky-Golay filter was applied to reduce high frequency noise. The association and dissociation phases were fit globally to a 1:1 single exponential binding model. All conditions were run in triplicate."}, "[2]": {"target": "mGRFT (Griffithsia sp., UniProt P84801, INS16GS)", "sequence (P84801 whole entry, stated change not applied)": "as above", "assay": "Isothermal titration calorimetry (ITC) binding to mGRFT", "settings": "two-site model"}, "[3]": {"test_system": "mGRFT binding to biotinylated Man-9", "assay": "BLI competition assay against immobilized Man-9", "design": "species or system Griffithsia", "settings": "Man-9 immobilized", "experimental": "To further probe this ultra-high-affinity interaction, we performed a BLI competition assay to determine whether the [2DEG]^2+ complex could outcompete mGRFT’s natural ligand, Man-9. Biotinylated Man-9 was immobilized on the BLI biosensor tip, which was then dipped into solutions containing mGRFT that was pre-incubated with varying concentrations of [2DEG]^2+. […] More broadly, this finding highlights the power of rational synthetic design to generate glycomimetics capable of outperforming their biological counterparts.\nas §1"}, "[4]": {"target": "GRFT", "design": "method as in PMID 17340634", "settings": "free mannose; cited from earlier work"}},
  "data": [
    {"compound": "Man-9", "values": [
      {"measurement": "Kd", "setting": "[1]; biotinylated Man-9 as the ligand", "result": "0.067 ± 0.001", "unit": "µM"}
    ]},
    {"compound": "OC[C@H]1O[C@H](OCCOCCOc2ccc(/C=N/CCN(CC/N=C/c3ccc(OCCOCCO[C@H]4O[C@H](CO)[C@@H](O)[C@H](O)[C@@H]4O)cn3)CC/N=C/c3ccc(OCCOCCO[C@H]4O[C@H](CO)[C@@H](O)[C@H](O)[C@@H]4O)cn3)nc2)[C@@H](O)[C@@H](O)[C@@H]1O.[Fe+2]", "note": "[[1DEG]^2+, [Fe(DEGman)3][SO4]]", "values": [
      {"measurement": "stoichiometry of each interaction", "setting": "[2]", "result": "one"}
    ]},
    {"compound": "OC[C@H]1O[C@H](O[C@@H]2[C@@H](OCCOCCOc3ccc(/C=N/CCN(CC/N=C/c4ccc(OCCOCCO[C@H]5O[C@H](CO)[C@@H](O)[C@H](O)[C@@H]5O[C@H]5O[C@H](CO)[C@@H](O)[C@H](O)[C@@H]5O)cn4)CC/N=C/c4ccc(OCCOCCO[C@H]5O[C@H](CO)[C@@H](O)[C@H](O)[C@@H]5O[C@H]5O[C@H](CO)[C@@H](O)[C@H](O)[C@@H]5O)cn4)nc3)O[C@H](CO)[C@@H](O)[C@@H]2O)[C@@H](O)[C@@H](O)[C@@H]1O.[Fe+2]", "note": "[[2DEG]^2+]", "values": [
      {"measurement": "dissociation rate kd", "setting": "[1]; 1:1 binding model", "result": "no measurable dissociation"},
      {"measurement": "reduction of BLI response in the association phase", "setting": "[3]; 0.5 molar equivalents of complex pre-incubated with mGRFT", "result": "approximately 50%"},
      {"measurement": "reduction of BLI response in the association phase", "setting": "[3]; two molar equivalents of complex pre-incubated with mGRFT", "result": "nearly eliminating the response entirely"}
    ]},
    {"compound": "Man-5", "values": [
      {"measurement": "Kd", "setting": "[1]; biotinylated Man-5 as the ligand, kinetic fitting and steady state analysis", "result": "40 ± 10", "unit": "µM"}
    ]},
    {"compound": "OC[C@H]1OC(O)[C@@H](O)[C@@H](O)[C@@H]1O", "note": "(stereo partly shown) [free mannose, mannose]", "values": [
      {"measurement": "Kd", "setting": "[4]", "result": 102, "unit": "µM"}
    ]}
  ]
}
